Reference: paper doi:10.1101/695973v1 (biorxiv, 2019)
Where two headings read alike, the source gives them in different places.

Key:
[1] = test system: β-lactamase Mm3; test: spectrophotometric hydrolysis at […] nm, initial rates, Michaelis-Menten fit; type: biochemical, uncultured bacterium; conditions: 20 mM sodium phosphate, 0.2 M NaCl, pH 7.4, 30°C
[2] = test system: β-lactamase Mm3; conditions: 20 mM sodium phosphate, 0.2 M NaCl, pH 7.4, 30°C; Hill equation, nH 2.36

Km [1] [µM]	Km [2] [µM]	SMILES
400 ± 42.7	–	CC1(C)S[C@@H]2[C@H](NC(=O)C(C(=O)O)c3ccccc3)C(=O)N2[C@H]1C(=O)O (some centres unmarked) [carbenicillin]
–	271 ± 16.4	CC1(C)S[C@@H]2[C@H](NC(=O)[C@H](N)c3ccccc3)C(=O)N2[C@H]1C(=O)O [ampicillin]
